Data published in PubChem BioAssay (NCI).
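Growth conditions: 96-well plates. Treatment: test compound, 48 hours, 5 concentrations. Analysis: linear interpolation between bracketing concentrations; unreached endpoints set to highest concentration. Here, GI50 denotes the concentration required for 50% inhibition of growth. TGI: total growth inhibition.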

What was measured:
Assay in all cases: inhibition of tumour cell growth, NCI panel, 48 h
[1] = test system: CAKI-1 renal
[2] = test system: SN12C renal
[3] = test system: A498 renal
[4] = test system: HT29 colon
[5] = test system: OVCAR-3 ovarian
[6] = test system: UACC-257 melanoma
[7] = test system: HCC-2998 colon
[8] = test system: UO-31 renal
[9] = test system: ACHN renal
[10] = test system: MDA-MB-231 breast
[11] = test system: NCI-H23 lung
[12] = test system: SK-MEL-2 melanoma
[13] = test system: RPMI-8226 leukemia
[14] = test system: K-562 leukemia
[15] = test system: EKVX NSCLC
[16] = test system: U251 CNS
[17] = test system: OVCAR-5 ovarian
[18] = test system: IGROV1 ovarian
[19] = test system: SF-268 CNS
[20] = test system: OVCAR-8 ovarian
[21] = test system: OVCAR-4 ovarian
[22] = test system: 786-0 renal
[23] = test system: BT-549 breast
[24] = test system: MALME-3M melanoma
[25] = test system: SF-295 CNS
[26] = test system: COLO 205 colon
[27] = test system: SR leukemia
[28] = test system: SK-MEL-28 melanoma
[29] = test system: TK-10 renal
[30] = test system: HOP-92 NSCLC
[31] = test system: SW-620 colon
[32] = test system: SNB-19 CNS
[33] = test system: NCI-H226 lung
[34] = test system: LOX IMVI melanoma
[35] = test system: MOLT-4 leukemia
[36] = test system: T-47D breast
[37] = test system: SK-OV-3 ovarian
[38] = test system: NCI-H522 lung
[39] = test system: KM12 colon
[40] = test system: HCT-15 colon
[41] = test system: A549 NSCLC
[42] = test system: SK-MEL-5 melanoma
[43] = test system: SNB-75 CNS
[44] = test system: HCT-116 colon
[45] = test system: PC-3 prostate
[46] = test system: NCI-H460 lung
[47] = test system: MCF7 breast
[48] = test system: HOP-62 NSCLC
[49] = test system: DU-145 prostate
[50] = test system: CCRF-CEM leukemia
[51] = test system: UACC-62 melanoma

CC(=O)Nc1cccc(Nc2nccc(N[C@@H](C)c3ccccc3)n2)c1
GI50 [1]: 108 nM | TGI [1]: > 10000 nM | GI50 [2]: 559 nM | TGI [2]: > 10000 nM | TGI [3]: > 10000 nM | GI50 [4]: 194 nM | TGI [4]: > 10000 nM | GI50 [5]: 118 nM | TGI [5]: > 10000 nM | GI50 [6]: 908 nM | TGI [6]: > 10000 nM | GI50 [7]: 423 nM | TGI [7]: > 10000 nM | GI50 [8]: 372 nM | TGI [8]: > 10000 nM | GI50 [9]: 509 nM | TGI [9]: > 10000 nM | GI50 [10]: 416 nM | TGI [10]: > 10000 nM | GI50 [11]: 239 nM | TGI [11]: > 10000 nM | GI50 [12]: 180 nM | TGI [12]: > 10000 nM | GI50 [13]: 293 nM | TGI [13]: > 10000 nM | GI50 [14]: 49.8 nM | TGI [14]: > 10000 nM | GI50 [15]: 363 nM | TGI [15]: > 10000 nM | GI50 [16]: 289 nM | TGI [16]: > 10000 nM | GI50 [17]: 409 nM | TGI [17]: > 10000 nM | GI50 [18]: 370 nM | TGI [18]: > 10000 nM | GI50 [19]: 990 nM | TGI [19]: > 10000 nM | GI50 [20]: 363 nM | TGI [20]: > 10000 nM | GI50 [21]: 1020 nM | TGI [21]: > 10000 nM | GI50 [22]: 602 nM | TGI [22]: > 10000 nM | GI50 [23]: 442 nM | TGI [23]: > 10000 nM | GI50 [24]: 102 nM | TGI [24]: > 10000 nM | GI50 [25]: 110 nM | TGI [25]: 522 nM | GI50 [26]: 262 nM | TGI [26]: 1080 nM | GI50 [27]: 45.3 nM | TGI [27]: > 10000 nM | GI50 [28]: 703 nM | TGI [28]: > 10000 nM | GI50 [29]: 760 nM | TGI [29]: > 10000 nM | GI50 [30]: 793 nM | TGI [30]: > 10000 nM | GI50 [31]: 194 nM | TGI [31]: > 10000 nM | GI50 [32]: 335 nM | TGI [32]: > 10000 nM | GI50 [33]: 1000 nM | TGI [33]: > 10000 nM | GI50 [34]: 390 nM | TGI [34]: > 10000 nM | GI50 [35]: 327 nM | TGI [35]: > 10000 nM | GI50 [36]: 331 nM | TGI [36]: > 10000 nM | GI50 [37]: 675 nM | TGI [37]: > 10000 nM | GI50 [38]: 129 nM | TGI [38]: 1240 nM | GI50 [39]: 104 nM | TGI [39]: > 10000 nM | GI50 [40]: 121 nM | TGI [40]: > 10000 nM | GI50 [41]: 418 nM | TGI [41]: > 10000 nM | GI50 [42]: 125 nM | TGI [42]: 481 nM | GI50 [43]: 119 nM | TGI [43]: > 10000 nM | GI50 [44]: 276 nM | TGI [44]: > 10000 nM | GI50 [45]: 319 nM | TGI [45]: > 10000 nM | GI50 [46]: 246 nM | TGI [46]: > 10000 nM | GI50 [47]: 171 nM | TGI [47]: > 10000 nM | GI50 [48]: 345 nM | TGI [48]: > 10000 nM | GI50 [49]: 383 nM | TGI [49]: > 10000 nM | GI50 [50]: 233 nM | TGI [50]: > 10000 nM | GI50 [51]: 126 nM | TGI [51]: > 10000 nM
